According to patent publication US6696495B2, “Treatment of disorders secondary to organic impairments” (Snowden Pharmaceuticals, LLC, priority 1998, dated 2004):
Read-outs that look alike come from different tables or passages of the source.

How the values were obtained:
[1] = system: Fibromyalgia—Chronic Fatigue Syndrome
[2] = system: Severe ADHD Refractory to All Other Medications With Executive (Frontal Lobe) Problems
From the text: A person was seen first for a life-long history of severe hyperactivity, distractibility, disorganization, poor memory of studied material, very poor concentration, and school failure despite a high IQ. There was no known history of head injury, other neurological disease, nor metabolic disease.

[3] = system: Non-Tourette's tics, obsessive-compulsive rituals, and attention deficit hyperactive disorder (ADHD)
[4] = system: Reflex Sympathetic Dystrophy Syndrome (RSDS); assay: Case history 22; format: in vivo, human; conditions: sibutramine 10 mg. b.i.d. Person
From the text: 22. Reflex Sympathetic Dystrophy Syndrome (RSDS)
A person injured their left ankle 14 months prior to their initial visit. The left lower leg then became red and then black, hot, swollen, and extremely painful. RSD was diagnosed and multiple treatments were unsuccessful. After nine months the skin gradually sloughed and the limb turned cold but remained painful, especially to touch. The patient also noted profuse swelling of the affected left leg, a tremor of the left hand, and many visual-spatial problems characteristic of right cerebral dysfunction. They were declared totally disabled. […] This enabled them to discontinue their other medication.

[5] = system: Institutionalization Syndrome; assay: Case history 25; format: in vivo, human
From the text: 25. The Symptoms Due to Institutionalization Syndrome, Also Known As Concentration Camp Syndrome or Survivors Syndrome.
A person was diagnosed with Institutionalization Syndrome and had been in and out of hospitals for 25 years.

[6] = system: Tourette's Disease Tics, Violence, and ADHD; assay: Case history 8, Sibutramine Patient No. 47; format: in vivo, human
[7] = sibutramine 15 mg three times a day

## CC(C)CC(N(C)C)C1(c2ccc(Cl)cc2)CCC1.Cl (centres unmarked) [sibutramine, N,N-dimethyl-1-[1-(4-chlorophenyl)cyclobutyl]-3-methylbutylamine hydrochloride]
[1]; first night after sibutramine
  sleep: difficulty in getting to sleep that first night
[1]; sibutramine 5 mg tid p.o.
  alertness and concentration: became alert and able to concentrate
  fatigue and energy: their fatigue diminished and their energy increased substantially
  pain points: their pain points were still tender but that the burning sensation at these points had abated within 4 days
[1]; sibutramine 5 mg tid p.o. Person
  time to response after the first 5 mg capsule: ≤ 2 h
[2]; rapid catabolism
  maximum duration of a single dose effect: 4 to 5 h
[2]; [7]
  ability to plan and execute (executive function): marked improvement in their ability to form appropriate, organized plans and execute them promptly without procrastination or distraction
  complaints: being “too calm” with a loss of the exciting high-risk behavior of the past
[2]; sibutramine 15 mg three times a day, person
  calm, concentration, retention of information: the first medication to calm them and permit careful, quiet concentration and retention of information
[3]; sibutramine 5 mg tid, child
  tics and OCD symptoms: stopped both the tics and the OCD symptoms, but only for a few hours
[3]; sibutramine 10 mg tid
  effect of missing a single dose: the vocal and motor tics return immediately
  sleep and appetite: Sleep and appetite were not affected
  tics and OCD symptoms: free of symptoms throughout the day
[3]; sibutramine 10 mg tid, versus dextroamphetamine, methylphenidate, pemoline
  concentration at school: better than with any of the analeptics
[4]
  cognition and pain: rapidly became cognitive and had pain relief
[5]; four months
  course since treatment began: continued improvement of their symptoms
[5]; sibutramine 15 mg once a day
  symptoms of Institutionalization Syndrome: relieved their symptoms within a few minutes
[6]; human, in vivo
  tics, aggressive outbursts, concentration: rapidly relieved their tics, their aggressive outbursts, and helped their concentration
[6]; sibutramine 10 mg every morning
  wear-off of effects: wore off quickly after noon with a rapid return of all symptoms
[6]; sibutramine 10 mg three times daily
  tics, violence, concentration problems: loss of verbal and motor tics, violence, and concentration problems
